Experimental data as given in US12195762B2, “Induction of pluripotent cells” (The Scripps Research Institute, priority 2009, dated 2025).
Entries after “also recorded” stand apart in the source; their conditions may differ.

Legend:
[1] = test system: human primary fibroblasts (CRL2097 or BJ); assay: iPSC induction from human primary fibroblasts transduced with the four reprogramming factors, with compound treatment; format: cell-based; conditions: for effect on reprogramming (in words): 4 factor-mediated reprogramming of fibroblasts
Protocol: We tested known inhibitors of the TGFβ receptor and MEK on 1×10^4 (Feng, B. et al., Cell Stem Cell 4, 301-12 (2009)) human primary fibroblasts (CRL2097 or BJ) that were retrovirally transduced with the 4TFs, for their effect on reprogramming kinetics and efficiency (see FIG. 1a for details). On day 7 (D7) post-infection, the compounds were added, individually or in combinations, and the cultures were examined for iPSCs over the next 1-3 weeks.
The Slc7a1-expressing human fibroblast cells were seeded at 1×10^5 cells/well of a 6 well plate on the day 1. On day 2, 0.25 ml of each retroviral supernatant was added to the cells in the presence of 6 μg/ml polybrene. A second round of transduction was done on day 3. Infection efficiency was estimated by fluorescence microscopy on cells transduced in parallel with GFP or RFP gene-carrying retroviruses. Seven days after initial transduction, fibroblasts were harvested by trypsinization and re-plated at 1×10^4 cells/well of a 6 well plate coated with matrigel (1:50 dilution, cat 354234, BD Biosciences). For compound treatment, the cells were cultured in human reprogramming medium (DMEM/F12, 20% Knockout serum replacer, 1×MEM Non-Essential amino acid, lx glutamax, 0.11 mM 2-Mercaptoethanol, 20 ng/ml bFGF and 1,000 U/ml LIF) and were treated with 2 μM SB431542 (Stemgent), 0.5 μM PD0325901 (Stemgent), 0.5 μM Thiazovivin, or combinations of the compounds. The media were changed every 2-3 days depending on the cell density. Seven days after compound treatment, either the plates were fixed and stained for Alkaline phosphatase (ALP) activity, or stained for protein markers, or the cultures were continued with or without indicated splitting by trypsinization till day 30. For split cultures, the cells were split (1:4) and re-plated onto irradiated CF-1 MEF feeder layer (2.5×10^5 cells/well) in each well of 6 well plate and were split (1:10) again on day 21. The cells were maintained in the same media and compound cocktail described above except for the concentrations of PD0325901 (0.5 μM for D14 and 1 μM for D21) and SB431542 (0.5-1 μM after D14). The iPSC colonies were subsequently maintained in conventional hESC media in the absence of the above compounds.
Alkaline phosphatase staining was performed using ALP detection kit (cat no: SCR004, Chemicon) according to the product instructions. For immunocytochemistry, cells were fixed in 4% paraformaldehyde (10 min, RT), washed twice with PBS, blocked using 5% normal donkey serum (Chemicon) and 0.1% TritonX-100 (15 min, RT) and then treated with primary antibodies overnight at 4° C. The primary antibodies used were anti-NANOG (cat no: AB9220, Chemicon, 1:1,000); anti-OCT4 (cat no: sc-5279, Santa Cruz biotech, 1:200), anti-SSEA 4 (cat no: mab4304, Chemicon, 1:500), anti-Tra-1-81 (cat 560123, BD Biosciences, 1:100), anti-Tra-1-81 (mAb 4381, Chemicon, 1:500), anti-βIII TUBULIN (cat no: MMS-435P, Covance Research Products Inc, 1:1000), anti-PDX 1 (1:500) (a kind gift from Dr. C. Wright), anti-BRACHYURY (cat No: AF2085, R & D, final concentration 0.2 μg/ml). The cells were washed twice with PBS and then treated with secondary antibodies for 1 hour at room temperature. The secondary antibodies used were Alexa fluor 488 donkey anti-rabbit or anti-mouse IgG (Invitrogen, 1:1,000) and Alexa fluor 555 donkey anti-rabbit or anti-mouse IgG (Invitrogen, 1:1,000). Nuclei were stained with 0.5 μg/ml DAPI (Sigma). Images were captured using a Nikon Eclipse TE2000-U/X-cite 120 EXFO microscope with a photometric CoolSnap HQ2 camera.

[2] = test system: NHEKs, Neonatal Human Epidermal Keratinocytes; assay: Reprogramming of NHEKs (TRA-1-81 positive iPSC colonies); format: cell-based; conditions: for generation of iPSCs / enhancement of reprogramming under OK condition (in words): 2TFs (OK)
Protocol: NHEKs were cultured in a 100 mm tissue culture dish and transduced 3 times (3-4 hours each transduction) with freshly produced lentivirus supernatants. 1,000,000 transduced NHEKs were seeded on the irradiated x-ray inactivated CF1 MEF feeder cells in a 100-mm dish and cultured in KCM and treated with 5 μM PS48, 0.25 mM NaB (Stemgent) and 0.5 μM A-83-01 (Stemgent) for 2 weeks, followed by changing half volume of media to hESCM and supplementing with 5 μM PS48, 0.25 mM NaB and 0.5 μM A-83-01 for another 2 weeks. Then cell culture media were changed to hESCM and supplemented with 5 μM PS48, 0.25 mM NaB, 0.5 μM A-83-01 and 0.5 μM PD0325901 (Stemgent) for additional four weeks. The same OCT4 infected keratinocytes cultured in media without chemicals were used as a control. The culture was split by Accutase (Millipore) and treated with 1 μM Thiazovivin (Stemgent) in the first day after splitting. The iPSC colonies stained positive by Alexa Fluor 555 Mouse anti-Human TRA-1-81 antibody (BD Pharmingen) were picked up for expansion on feeder cells in hESCM and cultured routinely.
NHEKs, Neonatal Human Epidermal Keratinocytes; HUVECs, Human Umbilical Vein Endothelial Cells; AHEKs, Adult Human Epidermal Keratinocytes; AFDCs, Amniotic Fluid Derived Cells. Chemical concentration used: PD, 0.5 μM PD0325901; A83, 0.5 μM A-83-01; PS48, 5 μM PS48; VPA, 0.5 mM Valproic acid; NaB, 0.25 mM Sodium butyrate; Par, 2 μM Parnate; CHIR, 3 μM CHIR99021. For four-factor or three-factor induced reprogramming, NHEKs were seeded at a density of 100,000 transduced cells per 10 cm dish and positive colonies were counted four-week later; For two-factor induced reprogramming, NHEKs were seeded at a density of 100,000 transduced cells per 10 cm dish and positive colonies were counted six-week later; For one-factor induced reprogramming, NHEKs and AHEKs were seeded at a density of 1,000,000 transduced cells per 10 cm dish and positive colonies were counted eight-week later; HUVECs and AFDCs were seeded at a density of 200,000 transduced cells per 10 cm dish and positive colonies were counted six-week later.

## NC(=O)c1ccc(-c2nc(-c3ccc4c(c3)OCO4)c(-c3ccccn3)[nH]2)cc1 [SB431542]
[1]; 4TFs
  dose dependence of the effect on iPS cell generation: dose dependent
[1]; 4TFs, 1×10^4 cells, day 7 post-treatment (D14), SB431542 2 μM, PD0325901 0.5 μM
  ALP+ colonies with hESC-like morphology: 1-2 colonies
[1]; 4TFs, 30 days without splitting
  number of granulate (partially reprogrammed) colonies: outnumbered by several fold the few hESC-like colonies

## CCCC(=O)[O-].[Na+] [NaB, Sodium butyrate]
[2]
  generation of iPSCs / enhancement of reprogramming under OK condition (in words): substantially enhance reprogramming; also recorded: much more reliable and efficient

## TGFβ
[1]
  effect on reprogramming (in words): inhibitory effect

## O=C(O)/C=C(/CCc1ccc(Cl)cc1)c1ccccc1 [PS48]
[2]
  generation of iPSCs / enhancement of reprogramming under OK condition (in words): substantially enhance reprogramming
[2]; two factors/OK, with 0.5 μM PD0325901 and 0.5 μM A-83-01
  enhancement of the reprogramming efficiency: about fifteen fold

## Cc1ccc2c(c1)C(=O)C1(O)CCN(c3ccccc3)C1=N2 (stereo not drawn) [blebbistatin]
[1]
  effect on reprogramming (in words): can be substituted for SB431542 (an ALK5 inhibitor), albeit with a reduced effect

## O=C(NOC[C@H](O)CO)c1ccc(F)c(F)c1Nc1ccc(I)cc1F [PD0325901]
[1]; 4TFs, D14, no splitting
  NANOG+ colonies at day 14: no NANOG^+ colonies
